Consider 10 molecules from ChEMBL document CHEMBL1201862, “PubChem BioAssay data set” (2004).

Structures are written as SMILES.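 Test compounds were applied to cells in 96-well plates for 48 hours at 5 doses. Abbreviation: GI50, concentration required for 50% inhibition of growth.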 The source made the active and inactive calls. Rule as the data show it: active = GI50 up to about 1.1 µM and inactive = higher.

What all share (test): growth of human tumour cells (NCI), 48 h
The subject of assay [1] is SK-OV-3.
Assay [2] relates to OVCAR-4.
Assay [3] relates to SF-268.
Assay [4] concerns A549.
The test system of assay [5] is SK-MEL-5.
Assay [6] relates to HT-29.
Assay [7] relates to SNB-19.
Assay [8] has as its system TK-10.
Assay [9] concerns UACC-62.
Assay [10] deals with IGROV-1.
For assay [11], the system named is NCI-H522.
Assay [12] deals with M14.
Assay [13] has as its system UO-31.
Assay [14] relates to T47D.
The test system of assay [15] is RXF 393.
Assay [16] deals with HOP-92.
Assay [17] concerns NCI/ADR-RES.
For assay [18], the system named is BT-549.
In assay [19] the test system is SK-MEL-28.
In assay [20] the test system is NCI-H460.

Consider `CC1(C)C[C@H]2[C@H](O)C(CO)=C3C(=O)[C@@H](O)[C@]3(C)[C@H]2C1`, for which the GI50 in assay [1] is > 100 µM (inactive); in assay [2], > 100 µM (inactive); in assay [3], 87.1 µM (inactive); in [4], > 100 µM (inactive); in assay [5] it was > 100 µM (inactive); in [6] it was 85.7 µM (inactive). The GI50 is > 100 µM (inactive) in assay [7]; > 100 µM (inactive) in assay [8]; > 100 µM (inactive) in assay [9]; > 100 µM (inactive) in assay [10]; 64.6 µM (inactive) in [11]; > 100 µM (inactive) in assay [12]. Further, the GI50 in assay [13] is 89.5 µM (inactive); in assay [14], 74.6 µM (inactive); in assay [15], 61.7 µM (inactive); in assay [16], > 100 µM (inactive); in assay [17], > 100 µM (inactive); in [18], 45.7 µM (inactive). Also, the GI50 in assay [19] is > 100 µM (inactive).
Turning to `COc1cc(O)cc(O)c1C(=O)CC(Cl)(Cl)Cl`, the GI50 in assay [1], in assay [2], in assay [3], in [4], in [5] and in [6] was > 100 µM (inactive) in each case. Besides, the GI50 in assay [7], in assay [8], in assay [9], in [10], in [11] and in [12] was > 100 µM (inactive) each time. The GI50 in assay [20], in assay [13], in [14], in [15], in [16] and in assay [17] was > 100 µM (inactive) in each case. In addition, the GI50 in assay [18] and in assay [19] was > 100 µM (inactive) in each case.
With `Cc1cccc(C)c1NC(=O)C(Cc1c[nH]c2ccccc12)NC(=O)OCc1ccccc1` (stereo not given), the GI50 in assay [1] is 22.8 µM (inactive); in [2], 8.04 µM (inactive); in assay [3] it was 18.7 µM (inactive); in assay [4], 14.6 µM (inactive); in assay [5] it was 13.5 µM (inactive); in assay [6], 18.7 µM (inactive). Moreover, the GI50 in [7] was 14.9 µM (inactive); in assay [8] it was 19.2 µM (inactive); in [9] it was 16.6 µM (inactive); in assay [10], 19.6 µM (inactive); in assay [11], 20.1 µM (inactive); in assay [12], 11.5 µM (inactive). The GI50 in assay [20] was 17.7 µM (inactive); in [13] it was 10.3 µM (inactive); in [14], 20.6 µM (inactive); in assay [15], 13.9 µM (inactive); in [16] it was 22.4 µM (inactive); in assay [17], 14.4 µM (inactive). For the same molecule, the values for the GI50 in assay [18] and in assay [19] were 24.8 µM (inactive) and 18.9 µM (inactive), respectively.
As for `Cc1ccc(NC(=O)CC(=O)N2N=C(N(c3ccccc3)c3ccccc3)CC2c2ccccc2)cc1` (stereo not given), the GI50 in [1] is > 100 µM (inactive); in assay [2], > 100 µM (inactive); in [3] it was 75.7 µM (inactive); in assay [4], > 100 µM (inactive); in assay [5] it was > 100 µM (inactive); in [6] it was > 100 µM (inactive). In addition, the GI50 in assay [7], in [8], in assay [9], in assay [10], in [11] and in [12] was > 100 µM (inactive) in each case. Also, the GI50 in [20] was > 100 µM (inactive); in assay [13] it was > 100 µM (inactive); in assay [14], > 100 µM (inactive); in [15], 52.8 µM (inactive); in assay [16], > 100 µM (inactive); in assay [17], > 100 µM (inactive). Besides, the GI50 in assay [18] and in [19] was > 100 µM (inactive) throughout.
Take `COc1c(C)c(OC)c2c(c1O)[C@@H]1[C@@H]3Cc4c(OC)c(C)c(OC)c(O)c4[C@H](CNC(=O)c4cnc5ccccc5n4)N3[C@@H](C#N)[C@H](C2)N1C`: the GI50 in assay [1] is 0.0125 µM (active); in [2], 0.002 µM (active); in assay [3], 0.00354 µM (active); in assay [4], 0.0292 µM (active); in assay [5], 0.00254 µM (active); in [6] it was 0.00206 µM (active). Further, the GI50 was 0.00385 µM (active) in [7]; 0.00771 µM (active) in [8]; 0.00123 µM (active) in assay [9]; 0.0014 µM (active) in [10]; 0.000399 µM (active) in [11]; 0.00221 µM (active) in assay [12]. The GI50 in assay [20] was 0.004 µM (active); in [13] it was 0.0064 µM (active); in assay [14], 0.000522 µM (active); in assay [15] it was 0.00341 µM (active); in [16], 0.00136 µM (active); in assay [17], > 0.0643 µM (active). Besides, the GI50 in assay [18] is 0.00132 µM (active); in assay [19] it was 0.0029 µM (active).
As for `CO/N=[N+](\[O-])NC(C)C`, the GI50 in assay [1], in assay [2], in assay [3], in assay [4], in assay [5] and in assay [6] was > 100 µM (inactive) each time. The GI50 in [7], in assay [8], in assay [9], in [10], in [11] and in [12] was > 100 µM (inactive) each time. For the same molecule, the GI50 is > 100 µM (inactive) in assay [20]; 5.42 µM (inactive) in assay [13]; > 100 µM (inactive) in assay [14]; > 100 µM (inactive) in [15]; > 100 µM (inactive) in assay [16]; > 100 µM (inactive) in [17]. Also, the GI50 in assay [18] and in assay [19] was > 100 µM (inactive) each time.
In the case of `Cc1cccc(/C=C2/C(=O)Nc3ccccc32)n1`, the GI50 in assay [1] is 18.1 µM (inactive); in assay [2] it was 23.4 µM (inactive); in assay [3], 14.7 µM (inactive); in [5] it was 12.9 µM (inactive); in assay [6] it was 24.1 µM (inactive); in [7], 23.7 µM (inactive). Besides, the GI50 in assay [8] is 15.7 µM (inactive); in [11], 12.7 µM (inactive); in assay [12] it was 15.1 µM (inactive); in assay [20], 16.9 µM (inactive); in [13], 14.3 µM (inactive); in assay [14], 4.95 µM (inactive). Further, the GI50 is 10.6 µM (inactive) in [15]; 7.82 µM (inactive) in assay [16]; 14.6 µM (inactive) in assay [17]; 21.4 µM (inactive) in assay [18]; 24.2 µM (inactive) in assay [19].
On to `CCOc1ccc(Nc2nc(N)nc(N)c2N=O)cc1`, for which the GI50 is > 100 µM (inactive) in assay [1]; 69.3 µM (inactive) in assay [2]; 89.7 µM (inactive) in assay [3]; > 100 µM (inactive) in [4]; 49.5 µM (inactive) in assay [5]; 30.4 µM (inactive) in [6]. Also, the GI50 was 61 µM (inactive) in [7]; 34.3 µM (inactive) in assay [8]; 44.1 µM (inactive) in [9]; 7.69 µM (inactive) in assay [10]; 55.5 µM (inactive) in assay [11]; > 100 µM (inactive) in [12]. Besides, the GI50 is 32.9 µM (inactive) in assay [20]; 29.9 µM (inactive) in assay [13]; 19.2 µM (inactive) in [14]; 43.9 µM (inactive) in [15]; 17.9 µM (inactive) in assay [16]; 47.1 µM (inactive) in assay [17]. The GI50 in assay [18] is 45.6 µM (inactive); in assay [19] it was 66.5 µM (inactive).
In the case of `C=C1CC[C@@H]2C13[C@@H]1[C@H](CC(=O)[C@@]23C)C1(C)C` (stereo not given in full), the GI50 is > 100 µM (inactive) in assay [1]; 15.5 µM (inactive) in assay [2]; > 100 µM (inactive) in assay [3]; 26.4 µM (inactive) in assay [4]; > 100 µM (inactive) in assay [5]; > 100 µM (inactive) in [6]. The GI50 in [8] is 33.7 µM (inactive); in assay [9] it was > 100 µM (inactive); in [10] it was 55.7 µM (inactive); in [11] it was > 100 µM (inactive); in [12] it was > 100 µM (inactive); in [20], > 100 µM (inactive). Also, the GI50 is 16.4 µM (inactive) in assay [13]; 55.8 µM (inactive) in assay [14]; 43.6 µM (inactive) in assay [15]; > 100 µM (inactive) in assay [16]; > 100 µM (inactive) in [17]; > 100 µM (inactive) in assay [18]. For the same molecule, in [19], the GI50 is > 100 µM (inactive).
In the case of `Clc1nc(Nc2nc3ccccc3[nH]2)nc(Cl)c1-c1ccccc1`, the GI50 in [1] is 22.1 µM (inactive); in [2], 14.8 µM (inactive); in [3], 33 µM (inactive); in assay [4], 34.7 µM (inactive); in [5], 20.9 µM (inactive); in assay [6], 16.8 µM (inactive). The GI50 in assay [7] is 36.1 µM (inactive); in assay [8], 39.4 µM (inactive); in [9], 18.1 µM (inactive); in assay [10] it was 19 µM (inactive); in assay [11] it was 17.3 µM (inactive); in assay [12], 35.1 µM (inactive). The GI50 in assay [20] is 12.2 µM (inactive); in assay [13], 20.8 µM (inactive); in [14], 40.7 µM (inactive); in assay [15], 16.9 µM (inactive); in assay [16], 8.65 µM (inactive); in [17], 27.7 µM (inactive). Besides, the GI50 in assay [18] was 16.5 µM (inactive); in [19], 11.7 µM (inactive).
